From patent US6420397B1, “Heteroaryl protease inhibitors and diagnostic imaging agents” (3-Dimensional Pharmaceuticals, Inc., priority 1999, dated 2002)

Tests used:
Human α-thrombin = target: T1, Human α-thrombin (Homo sapiens, UniProt P00734); assay: In vitro inhibition of purified enzymes: thrombin Ki determination (p-nitroanilide substrate hydrolysis); format: biochemical; conditions: substrate N-succinyl-Ala-Ala-Pro-Arg-p-nitroanilide, 37° C., pH 7.5
T1 construct: Purified human α-thrombin was diluted into assay buffer; purchased Enzyme Research Laboratories (South Bend, Indiana)
Source text: (§1) Reagents: All buffer salts were obtained from Sigma Chemical Company (St. Louis, Mo.), and were of the highest purity available. The enzyme substrate N-benzoyl-Ile-Glu-Gly-Arg-p-nitroanilide hydrochloride (Sigma B2291) was obtained from Sigma. N-succinyl-Ala-Ala-Pro-Arg-p-nitroanilide (BACHEM L-1720) was obtained from BACHEM (King of Prussia, Pa.). Human α-thrombin and human factor Xa were obtained from Enzyme Research Laboratories (South Bend, Indiana).
Ki Determinations: All assays are based on the ability of the test compound to inhibit the enzyme catalyzed hydrolysis of a peptide p-nitroanilide substrate. In a typical Ki determination, substrate is prepared in DMSO, and diluted into an assay buffer consisting of 50 mM HEPES, 200 mM NaCl, pH 7.5. The final concentrations for each of the substrates is listed below. In general, substrate concentrations are lower than the experimentally determined value for Km. Test compounds are prepared as a 1.0 mg/ml solution in DMSO. Dilutions are prepared in DMSO yielding 8 final concentrations encompassing a 200 fold concentration range. Enzyme solutions are prepared at the concentrations listed below in assay buffer.
(§2) In a typical Ki determnination, into each well of a 96 well plate is pipetted […] of substrate solution, […] of test compound solution, and the plate allowed to thermally equilibrate at 37° C. in a Molecular Devices plate reader for >15 minutes. Reactions were initiated by the addition of a […] aliquot of enzyme and the absorbance increase at 405 nm is recorded for 15 minutes. Data corresponding to less than 10% of the total substrate hydrolysis were used in the calculations. The ratio of the velocity (rate of change in absorbance as a function of time) for a sample containing no test compound is divided by the velocity of a sample containing test compound, and is plotted as a function of test compound concentration. The data are fit to a linear regression, and the value of the slope of the line calculated. The inverse of the slope is the experimentally determined Ki value.
Thrombin: Thrombin activity was assessed as the ability to hydrolyze the substrate N-succinyl-Ala-Ala-Pro-Arg-p-nitroanilide. Substrate solutions were prepared at a concentration of […] in assay buffer. Final DMSO concentration was 4.3%. Purified human α-thrombin was diluted into assay buffer to a concentration of 15 nM. Final reagent concentrations were: [thrombin]=0.5 nM, [substrate N-succinyl-Ala-Ala-Pro-Arg-p-nitroanilide]=32 mM.

human factor Xa = target: T2, human factor Xa (Homo sapiens, UniProt P00742); assay: In vitro inhibition of purified enzymes: Factor Xa (p-nitroanilide substrate hydrolysis); format: biochemical; conditions: read-out: Factor Xa % inhibition @ conc.
T2 construct: purchased Enzyme Research Laboratories (South Bend, Indiana)
T2 sequence (P00742 235-488 limits assumed): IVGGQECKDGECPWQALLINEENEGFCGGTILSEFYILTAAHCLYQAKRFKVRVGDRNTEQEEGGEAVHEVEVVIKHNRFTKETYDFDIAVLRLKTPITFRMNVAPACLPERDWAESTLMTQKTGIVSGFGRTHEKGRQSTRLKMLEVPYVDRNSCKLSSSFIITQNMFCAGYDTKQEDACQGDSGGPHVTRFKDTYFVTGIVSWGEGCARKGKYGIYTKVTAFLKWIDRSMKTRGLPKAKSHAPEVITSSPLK
T2 sequence (P00742 41-179 limits assumed): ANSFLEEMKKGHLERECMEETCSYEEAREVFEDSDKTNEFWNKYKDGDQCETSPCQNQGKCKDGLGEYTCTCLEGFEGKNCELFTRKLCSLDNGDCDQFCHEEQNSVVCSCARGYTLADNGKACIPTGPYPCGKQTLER
Source text: as §1
Ki Determinations: All assays are based on the ability of the test compound to inhibit the enzyme catalyzed hydrolysis of a peptide p-nitroanilide substrate. […] In general, substrate concentrations are lower than the experimentally determined value for Km. […]
as §2, with “Data corresponding to less than 10% of the total substrate hydrolysis were used in the calculations.” left out, “The data are fit to a linear regression, and the value of the slope of the line calculated. The inverse of the slope is the experimentally determined Ki value.” left out

SMILES	Ki (Human α-thrombin)	inhibition at 20 µM (human factor Xa; @ 20 μM)	inhibition at 13 µM (human factor Xa; @ 13 μM)
Cc1ccc(NS(=O)(=O)Cc2ccccc2I)c(=O)n1CC(=O)N[C@@H](CCONC(=N)N)C(=O)c1nccs1 [Example 1, N-{(1S)-1-[2-(Amidinoaminooxy)ethyl]-2-oxo-2-(1,3-thiazol-2-yl)ethyl}-2-[3-({[(2-iodophenyl)methyl]sulfonyl}amino)-6-methyl-2-oxohydropyridyl]acetamide]	14 nM	16%	
Cc1ccc(NS(=O)(=O)Cc2ccccc2I)c(=O)n1CC(=O)N[C@@H](CCONC(=N)N)C(=O)c1nc2ccccc2s1 [Example 2, N-{(1S)-1-[2-(Amidinoaminooxy)ethyl]-2-benzothiazol-2-yl-2-oxoethyl}-2-[3-({[(2-iodophenyl)methyl]sulfonyl}amino)-6-methyl-2-oxohydropyridyl]acetamide]	75 nM		51%
Cc1ccc(NS(=O)(=O)c2cccc(I)c2)c(=O)n1CC(=O)N[C@@H](CCONC(=N)N)C(=O)c1nccs1 [Example 3, N-{(1S)-1-[2-(Amidinoaminooxy)ethyl]-2-oxo-2-(1,3-thiazol-2-yl)ethyl}-2-(3-{[(3-iodophettyl)sulfonyl]amino}-6-methyl-2-oxohydropyridyl)acetamide]	45 nM		
Cc1ccc(NS(=O)(=O)c2cccc(I)c2)c(=O)n1CC(=O)N[C@@H](CCONC(=N)N)C(=O)c1nc2ccccc2s1 [Example 4, N-{(1S)-1-[2-(Amidinoaminooxy)ethyl]-2-benzothiazol-2-yl-2-oxoethyl}-2-(3-{[(3-iodopheityl)sulfonyl]amino}-6-methyl-2-oxohydropyridyl)acetamide]	17 nM		
